Results as given in publication PMC5150661 (Journal of Medicinal Chemistry, 2016).
Where two headings read alike, the source gives them in different places. Marks after values point to notes of the source that are not given here.

Experiments:
S. mansoni [1] = test: S. mansoni in vivo study, worm burden reduction in infected NMRI mice; design: species or system Schistosoma mansoni in NMRI mice
in vitro [2] = conditions: mouse, microsomes
[3] = biological target: T1, wild-type androgen receptor (AR) in LAPC4 cell line (Homo sapiens, UniProt P10275); type: cell-based
T1 sequence (P10275 1-920): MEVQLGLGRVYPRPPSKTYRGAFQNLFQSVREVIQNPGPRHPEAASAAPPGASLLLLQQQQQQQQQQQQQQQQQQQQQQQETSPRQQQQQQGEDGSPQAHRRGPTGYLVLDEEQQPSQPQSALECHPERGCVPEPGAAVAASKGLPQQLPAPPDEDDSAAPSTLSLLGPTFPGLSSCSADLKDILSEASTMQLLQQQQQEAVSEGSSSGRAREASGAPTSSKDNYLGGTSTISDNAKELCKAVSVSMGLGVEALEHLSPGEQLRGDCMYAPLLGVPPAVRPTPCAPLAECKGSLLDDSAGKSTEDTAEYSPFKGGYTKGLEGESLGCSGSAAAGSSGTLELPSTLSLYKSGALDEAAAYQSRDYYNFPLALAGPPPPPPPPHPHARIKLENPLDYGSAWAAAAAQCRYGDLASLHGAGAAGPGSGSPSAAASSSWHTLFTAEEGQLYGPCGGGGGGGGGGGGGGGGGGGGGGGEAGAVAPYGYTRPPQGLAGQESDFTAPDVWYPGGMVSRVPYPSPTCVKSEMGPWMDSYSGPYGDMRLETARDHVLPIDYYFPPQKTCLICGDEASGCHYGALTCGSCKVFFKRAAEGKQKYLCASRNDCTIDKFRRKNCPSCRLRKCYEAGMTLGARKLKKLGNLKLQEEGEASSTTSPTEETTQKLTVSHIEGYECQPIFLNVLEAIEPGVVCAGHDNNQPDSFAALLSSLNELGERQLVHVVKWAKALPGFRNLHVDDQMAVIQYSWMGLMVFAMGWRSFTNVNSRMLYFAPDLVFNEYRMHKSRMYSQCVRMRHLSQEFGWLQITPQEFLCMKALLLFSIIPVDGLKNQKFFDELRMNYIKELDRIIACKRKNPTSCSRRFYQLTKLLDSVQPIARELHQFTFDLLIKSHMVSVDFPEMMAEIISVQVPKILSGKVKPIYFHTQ

[4] = type: in vitro ADME; conditions: liver microsomes
in vitro [5] = conditions: human, microsomes
physchem = type: physicochemical; conditions: pH 7.4
S. mansoni [6] = conditions: 1 × 100 mg/kg po; ref Keiser et al. 21; cited from earlier work
S. mansoni [7] = conditions: cited from earlier work
[8] = Mouse exposure study after oral administration; type: in vivo, male Swiss outbred mice; conditions: after oral administration of 100 mg/kg of 1
[9] = 0.01 M HCl (approximately pH 2.0), 1% DMSO, nephelometry
[10] = pH 6.5 phosphate buffer, 1% DMSO, nephelometry

Compound	Sol2.0 [9]	Sol6.5 [10]	metabolic stability (in words) [4]	further results
O=C1N[C@H](c2ccccc2)C(=O)N1c1ccc(F)c(C(F)(F)F)c1 [Compd 24, (R)-3-[4-Fluoro-3-(trifluoromethyl)phenyl]-5-phenylimidazolidine-2,4-dione]	6.3–12.5/6.3–12.5 μg/mL	6.3–12.5/6.3–12.5 μg/mL	decreased the metabolic stabilities	inhibition in vivo at 100 mg/kg (S. mansoni [1]; Schistosoma mansoni, in Mus musculus, po, 504 h, read-out: S. mansoni WBR): 41%; microsomal CLint (in vitro [2]): 181 µL/min/mg; IC50 [3]: 5.3 µM; microsomal CLint (in vitro [5]): 22 µL/min/mg; chromatographic logD (physchem): 3.5
CC1(C)C(=O)N(c2ccc(F)c(C(F)(F)F)c2)C(=O)N1CC#N [Compd 5, 2-[3-[4-Fluoro-3-(trifluoromethyl)phenyl]-5,5-dimethyl-2,4-dioxoimidazolidin-1-yl]acetonitrile]	25–50/25–50 μg/mL	25–50/25–50 μg/mL	–	–
CC1(C)OC(=O)N(c2ccc(F)c(C(F)(F)F)c2)C1=O [Compd 30, 3-[4-Fluoro-3-(trifluoromethyl)phenyl]-5,5-dimethyloxazolidine-2,4-dione]	3.1–6.3/3.1–6.3 μg/mL	3.1–6.3/3.1–6.3 μg/mL	–	–
O=C1NC2(CCCCC2)C(=O)N1c1ccc(F)c(C(F)(F)F)c1 [Compd 27, 3-[4-Fluoro-3-(trifluoromethyl)phenyl]-1,3-diazaspiro[4.5]decane-2,4-dione]	3.1–6.3/3.1–6.3 μg/mL	3.1–6.3/3.1–6.3 μg/mL	decreased the metabolic stabilities	–
O=C1C2CCCN2C(=O)N1c1ccc(F)c(C(F)(F)F)c1 (stereo not drawn) [Compd 28, 2-[4-Fluoro-3-(trifluoromethyl)phenyl]tetrahydro-1H-pyrrolo[1,2-c]imidazole-1,3(2H)-dione]	25–50/25–50 μg/mL	25–50/25–50 μg/mL	decreased the metabolic stabilities	–
CC1(C)C(=O)N(c2ccc(F)c(C(F)(F)F)c2)C(=O)N1S(C)(=O)=O [Compd 7, 3-[4-Fluoro-3-(trifluoromethyl)phenyl]-5,5-dimethyl-1-(methylsulfonyl)imidazolidine-2,4-dione]	1.6–3.1/1.6–3.1 μg/mL	1.6–3.1/1.6–3.1 μg/mL	highly stable	–
CC1(C)C(=O)N(c2ccc(F)c(C(F)(F)F)c2)C(=O)N1CC(N)=O [Compd 4, 2-[3-[4-Fluoro-3-(trifluoromethyl)phenyl]-5,5-dimethyl-2,4-dioxoimidazolidin-1-yl]acetamide]	50–100/50–100 μg/mL	50–100/50–100 μg/mL	–	LAPC4 IC50 ([3]; DHT-induced luciferase reporter, 24 h): agonist; AR functional activity (in words) ([3]; LAPC4 reporter): weak AR agonist
CC1(C)C(=O)NC(=O)N1c1ccc(F)c(C(F)(F)F)c1 [Compd 33, 1-[4-Fluoro-3-(trifluoromethyl)phenyl]-5,5-dimethylimidazolidine-2,4-dione]	25–50/25–50 μg/mL	25–50/25–50 μg/mL	–	–
O=C(C1CCCCC1)N1CC(=O)N2CCc3ccccc3C2C1 (stereo not drawn) [PZ, Praziquantel]	–	–	–	Sol2.0 (pH 2): >100/>100 μg/mL; Sol6.5 (pH 6.5): >100/>100 μg/mL; S. mansoni WBR (S. mansoni [6]): 18 ^i %; ED50 against adult S. mansoni (S. mansoni [7]; mouse model): 172 to 202 mg/kg; activity against juvenile stages of the parasite (S. mansoni [7]; mouse model): no significant activity
CC1(C)CN(c2ccc(F)c(C(F)(F)F)c2)C(=O)N1 [Compd 32, 1-[4-Fluoro-3-(trifluoromethyl)phenyl]-4,4-dimethylimidazolidin-2-one]	12.5–25/12.5–25 μg/mL	12.5–25/12.5–25 μg/mL	–	–
CC1(CO)NC(=O)N(c2ccc(F)c(C(F)(F)F)c2)C1=O (stereo not drawn) [Compd 25, 3-[4-Fluoro-3-(trifluoromethyl)phenyl]-5-(hydroxymethyl)-5-methylimidazolidine-2,4-dione]	25–50/25–50 μg/mL	25–50/25–50 μg/mL	high metabolic stabilities	exposure of metabolite relative to 1, based on AUC0–24h [8]: approximately 3%
O=C1NC2(CCCC2)C(=O)N1c1ccc(F)c(C(F)(F)F)c1 [Compd 26, 3-[4-Fluoro-3-(trifluoromethyl)phenyl]-1,3-diazaspiro[4.4]nonane-2,4-dione]	50–100/50–100 μg/mL	50–100/50–100 μg/mL	decreased the metabolic stabilities	–
CC1(C)CC(=O)N(c2ccc(F)c(C(F)(F)F)c2)C1=O [Compd 29, 1-[4-Fluoro-3-(trifluoromethyl)phenyl]-3,3-dimethylpyrrolidine-2,5-dione]	12.5–25/12.5–25 μg/mL	12.5–25/12.5–25 μg/mL	–	–
CC(C)(NC(=O)Nc1ccc(F)c(C(F)(F)F)c1)C(=O)O [Compd 36, 2-[3-[4-Fluoro-3-(trifluoromethyl)phenyl]ureido]-2-methylpropanoic acid]	25 to 50 µg/mL	–	–	exposure of metabolite relative to 1, based on AUC0–24h [8]: < 1%
CC1(C)C(=O)N(c2ccc(F)c(C(F)(F)F)c2)C(=O)N1S(=O)(=O)c1ccccc1 [Compd 8, 3-[4-Fluoro-3-(trifluoromethyl)phenyl]-5,5-dimethyl-1-(phenylsulfonyl)imidazolidine-2,4-dione]	<1.6/<1.6 μg/mL	<1.6/<1.6 μg/mL	unstable	–
CC1(C)C(=O)N(c2ccc(F)c(C(F)(F)F)c2)C(=O)N1CCc1ccccc1 [Compd 6, 3-[4-Fluoro-3-(trifluoromethyl)phenyl]-5,5-dimethyl-1-phenethylimidazolidine-2,4-dione]	12.5 to 25 µg/mL	25 to 50 µg/mL	unstable	–
CC1(C)CNC(=O)N(c2ccc(F)c(C(F)(F)F)c2)C1=O [Compd 35, 3-[4-Fluoro-3-(trifluoromethyl)phenyl]-5,5-dimethyldihydropyrimidine-2,4(1H,3H)-dione]	12.5–25/12.5–25 μg/mL	12.5–25/12.5–25 μg/mL	–	–
CCN1C(=O)N(c2ccc(F)c(C(F)(F)F)c2)C(=O)C1(C)C [Compd 3, 1-Ethyl-3-[4-fluoro-3-(trifluoromethyl)phenyl]-5,5-dimethylimidazolidine-2,4-dione]	50 to 100 µg/mL	25 to 50 µg/mL	intermediate	metabolic reactions observed [4]: N-dealkylation metabolic reactions to form 1
CC1(C)NC(=O)N(c2ccnc(C(F)(F)F)c2)C1=O [Compd 16, 5,5-Dimethyl-3-[2-(trifluoromethyl)pyridin-4-yl]imidazolidine-2,4-dione]	–	–	–	cure of infected mice (S. mansoni [1]; 100 mg/kg): cure of all of the infected mice
CC1(C)NC(=O)C(c2ccc(F)c(C(F)(F)F)c2)C1=O (stereo not drawn) [Compd 31, 3-[4-Fluoro-3-(trifluoromethyl)phenyl]-5,5-dimethylpyrrolidine-2,4-dione]	25 to 50 µg/mL	–	–	–
CC1(C)CC(=O)N(c2ccc(F)c(C(F)(F)F)c2)C(=O)N1 [Compd 34, 3-[4-Fluoro-3-(trifluoromethyl)phenyl]-6,6-dimethyldihydropyrimidine-2,4(1H,3H)-dione]	25–50/25–50 μg/mL	25–50/25–50 μg/mL	–	–
CC1(C)NC(=O)N(c2ccc([N+](=O)[O-])c(C(F)(F)F)c2)C1=O [N, nilutamide]	–	–	–	antischistosomal activity in S. mansoni-infected mice (S. mansoni [7]): weak, but measurable
O=C1CNC(=O)N1c1ccc(F)c(C(F)(F)F)c1 [Compd 22]	>100/>100 μg/mL	>100/>100 μg/mL	high metabolic stabilities	–
CN1C(=O)N(c2ccc(F)c(C(F)(F)F)c2)C(=O)C1(C)C [Compd 2, 3-[4-Fluoro-3-(trifluoromethyl)phenyl]-1,5,5-trimethylimidazolidine-2,4-dione]	50–100/50–100 μg/mL	50–100/50–100 μg/mL	intermediate	metabolic reactions observed [4]: N-dealkylation metabolic reactions to form 1
